Tests used:
[1] = Ex-vivo rat intestinal fluid stability assay; format: in vitro ADME; design: half-life: dose or concentration left out as unconfirmed; conditions: 37° C.; for prodrug converted into its parent drug / cleaved: after 60 minutes of incubation; for half-life: rat intestinal (jejunum) fluid, read-out: disappearance half-life (T1/2)
Description: Phosphate prodrugs disclosed herein were designed to be cleaved by alkaline phosphatase(s) that are present on the apical brush-border membranes of the intestine, after which the more hydrophobic parent compound is readily absorbed. Phosphatases are also present in the liver and in the systemic circulation. In order to test the speed of cleavage of the prodrug into the parent drug, […] solutions of each of the test compounds were incubated in rat intestinal (jejunum) fluid. Samples were taken at times=0, 5, 15, 30 and 60 min and the mixtures were quenched by the addition of acetonitrile containing an internal standard. Samples were analyzed by full scan LC/MS. The following protocol was used:
10 mM DMSO stock solutions were thawed or prepared for the positive control (Enalapril) and each test article. Internal standard (IS) crash solution in acetonitrile (ACN) with 20 ng/ml of Compound Z, depicted below, was prepared. Stock (250 uM) was prepared from 10 mM in 50/50 acetonitrile/H2O. Rat intestinal fluid vials were thawed in a water bath at rt.
In a 96-well, 1 ml plate, 48 uL of rat intestinal fluid was aliquoted in triplicate for each time point. The t0 (“0 min”) time point was prepared separately by adding 450 ul of IS crash solution to 48 ul of intestinal fluid, then adding 2 uL of test compound. 2 ul of the 250 uM substock was added to initiate the reaction at 5 min, 15 min, 30 min, and 60 min. The plate prepared in the above steps was covered with a plastic or foil seal and was set in the 37° C. incubator, lightly shaking. For each time point, 450 ul of IS crash solution was added to quench the reaction. The plates were centrifuged at 4000 RPM for 10 minutes at 4° C. 50 ul of supernatant was transferred into 50 ul of H2O and analyzed using LC/MS.
The disappearance of the prodrug and the conversion to the parent were monitored over time.

[2] = Rat PK following intravenous and oral dosing; format: in vivo, male Sprague-Dawley rats
[3] = plasma, Intermediate 3 dosed 1 mg/kg IV in PEG
[4] = plasma, Intermediate 3 dosed 3.0 mg/kg PO

Row | prodrug converted into its parent drug ([1]; after 30 minutes of incubation) | prodrug converted into its parent drug / cleaved [1] | half-life [1] | Vol. of Dist ([2]; Compound I-1 1 mg/kg IV in PBS, analyte Compound I-1) | Vol. of Dist ([2]; Intermediate 3 dosed 1 mg/kg IV in PEG) | Bioavail. (%) ([2]; Intermediate 3 dosed 3.0 mg/kg PO) | AUC(0-inf) [2, 3] | Cmax [2, 3] | clearance [2, 3] | AUC(0-t) [2, 4] | Cmax [2, 4] | Tmax [2, 4] | half-life ([2]; plasma, iv, 1 mg/kg, Intermediate 3 dosed 1 mg/kg IV in PEG) | Compound
1 | About 80% | about 95% | 0.267 h | 4.4 ± 2.6 L/kg |  |  |  |  |  |  |  |  |  | O=P(O)(O)OC(CNc1nc(-c2cc(-c3ccon3)n(Cc3ccccc3F)n2)ncc1F)(C(F)(F)F)C(F)(F)F [Compound I-1]
2 |  | More than 99% | 0.15 h |  |  |  |  |  |  |  |  |  |  | O=P(O)(O)OCOC(CNc1nc(-c2cc(-c3ccon3)n(Cc3ccccc3F)n2)ncc1F)(C(F)(F)F)C(F)(F)F [Compound I-4]
3 |  |  |  |  | 9.5 L/kg | 102% | 1100 ng·h/mL | 227 ng/mL | 16 mL/min/kg | 3600 ± 280 ng·h/mL | 250 ± 10 ng/mL | 8 h | 7.1 h | OC(CNc1nc(-c2cc(-c3ccon3)n(Cc3ccccc3F)n2)ncc1F)(C(F)(F)F)C(F)(F)F [Intermediate 3]
